From patent US8829049B2, “Medicinal composition intended for the treatment of erectile dysfunction in mammals and use of the composition” (ACEF S.A., priority 2009, dated 2014)
“Also recorded” adds a separate entry of the source. Counter-ions that a name gives are not always drawn.

How the values were obtained:
[1] = biological target: phosphodiesterase 5 (PDE-5) (Homo sapiens, UniProt O76074); experiment: activity test for the enzyme phosphodiesterase 5 (PDE-5); assay type: biochemical; details: PDE-5 enzyme activity; read-out: 50% effective dose (DE50)
[2] = heart rate and adverse signs in the treated mice; assay type: in vivo; details: for Heart rate, AVERAGE, after: after administration; for Heart rate, AVERAGE, before: before administration; for adverse signs observed (tachycardia, shaking): intraperitoneal, Group I sildenafil citrate, Group III cubebin
Protocol: (§1) 42 Swiss mice have been used, adults, between 18 and 24 weeks old, weighing between 25 and 35 grams, from the Biotherium of the University of Franca (UNIFRAN), which were confined in plastic cages with metal fences and fed with standard feed (Labina-Purina) and water ad libitum, at room temperature of 22° C.
After a period of adaptation, the animals have been divided into seven groups, as per Table 1 below: […]

patients = details: cited from earlier work; for interaction with nitrates: combination with nitroglycerin / organic nitrates; for adverse effects: patients
[3] = cited from earlier work
Swiss mice = experiment: vasodilating effect / penile erection test in Swiss mice, intraperitoneal administration, with penile histology; assay type: in vivo
Protocol: as §1
After a period of adaptation, the animals have been divided into seven groups, as per Table 1 below:
Animals from all groups have been kept under the same conditions for four hours for later evaluation of the studied pharmacological effect. They were subsequently anesthetized with a solution of 1.5 mg of ketamine plus 0.1 mg of xylazine and then euthanized to take off the penile tissue. Each sample was immediately stocked in 10% formaldehyde to make histological slides.

| Compound | EC50 [1] | Heart rate, AVERAGE, after [2] | Heart rate, AVERAGE, before [2] | adverse signs observed (tachycardia, shaking) [2] | interaction with nitrates (patients) | adverse effects (patients) | further results |
| --- | --- | --- | --- | --- | --- | --- | --- |
| OC1OC[C@H](Cc2ccc3c(c2)OCO3)[C@H]1Cc1ccc2c(c1)OCO2 (mixture of isomers) [cubebin] | 16.6 ± 8.2 µM | 553.5 | 621.7 | not causing tachycardia or shaking | – | – | – |
| CN1CC(=O)N2[C@H](c3ccc4c(c3)OCO4)c3[nH]c4ccccc4c3C[C@@H]2C1=O [Tadalafil] | – | – | – | – | modest synergic effects | patients did not have red skin | – |
| CCCc1nc(C)c2c(=O)[nH]c(-c3cc(S(=O)(=O)N4CCN(CC)CC4)ccc3OCC)nn12 [Vardenafil] | – | – | – | – | minimum changes in heart rate and blood pressure | – | time to maximum plasma concentration ([3]; single doses of 10 or 20 mg): ≤ 0.7 h |
| O[C@H]1OC[C@H](Cc2ccc3c(c2)OCO3)[C@H]1Cc1ccc2c(c1)OCO2 [cubebin] | – | – | – | – | – | – | ejaculation after treatment (Swiss mice; mice of Group III, FIGS. 4c and 4d): ejaculating after said treatment; penile erection / sexual behaviour observed (Swiss mice; mice, intraperitoneal, Group I sildenafil citrate, Group III 20 mg/kg cubebin): prolonged erection and licked the penis; also recorded: penile erection; histology of corpus cavernosum (Swiss mice; mouse penile tissue, H. E., 400×): void space very dilated and congested |
| CCCc1nn(C)c2c(=O)[nH]c(-c3cc(S(=O)(=O)N4CCN(C)CC4)ccc3OCC)nc12 [sildenafil citrate] | – | 627.75 | 628.5 | tachycardia, shaking and testicle tumescence | – | cephalea, red skin, dyspepsia, nose congestion and visual disturbances | deaths related to the drug reported (patients; in vivo): More than 500 deaths; rate of deaths (patients; in vivo): fifty; half life in circulation ([3]; in vivo): four |
| hydroethylic desildenafil citrate | 38.4 ± 1.8 µM | – | – | – | – | – | – |
